Here are results for one compound from ChEMBL document CHEMBL1126580, “Enantiospecific syntheses of alpha-(fluoromethyl)tryptophan analogues: interactions with tryptophan hydroxylase and aromatic L-amino acid decarboxylase” (J Med Chem, 1993).

For this assay, the target named is T1, Aromatic-L-amino-acid decarboxylase (Mus musculus) (UniProt O88533).
T1 sequence (whole entry): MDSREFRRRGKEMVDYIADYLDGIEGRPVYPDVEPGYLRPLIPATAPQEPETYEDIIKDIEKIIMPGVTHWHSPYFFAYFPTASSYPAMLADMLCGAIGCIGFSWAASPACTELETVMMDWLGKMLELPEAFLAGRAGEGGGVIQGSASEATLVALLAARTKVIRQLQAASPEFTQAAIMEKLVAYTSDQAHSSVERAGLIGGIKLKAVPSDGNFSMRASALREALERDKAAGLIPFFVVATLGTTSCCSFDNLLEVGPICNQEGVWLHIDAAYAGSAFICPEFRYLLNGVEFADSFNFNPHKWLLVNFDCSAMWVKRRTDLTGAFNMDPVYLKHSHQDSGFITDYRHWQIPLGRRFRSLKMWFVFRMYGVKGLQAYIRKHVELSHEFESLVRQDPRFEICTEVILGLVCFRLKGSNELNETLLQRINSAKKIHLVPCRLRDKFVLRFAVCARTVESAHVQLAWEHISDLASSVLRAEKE
In words: First-order inactivation rate constant (k2) was evaluated as an inhibitor of murine liver aromatic L-amino acid decarboxylase (AADC).

The compound `N[C@@](CF)(Cc1c[nH]c2ccc(O)cc12)C(=O)O` gave a k2 of 2.26 min⁻¹.
